Legend:
Format in all cases: in vivo
Echinochloa oryzicola [1] = experiment: Pot test Example 3: herbicidal effect on Echinochloa oryzicola, spray on drained soil then flooding; settings: score 0-100, 25 g/ha, 4th leaf stage, evaluated 2 weeks after application
Protocol: (§1) In Examples of the method of the present invention, a criterion for evaluating a herbicidal effect is as follows.
A 1/10000-are pot was filled with a paddy field soil, and then water was added thereto followed by soil puddling. After draining, a pre-germinated Echinochloa oryzicola was sown, and then grown in a glasshouse. Sixteen (16) days after the sowing when Echinochloa oryzicola had the 4th leaves, each water-diluted solution containing 112 ppm of Compound 2 or Compound 3 was applied by spraying on the surface of the pot with a sprayer so that each amount of Compound 2 and Compound 3 as listed in Table 3 was applied. Each water-diluted solution of Compound 2 and Compound 3 was prepared by dissolving a given amount of Compound 2 or Compound 3 in acetone containing 2% (w/v) of Tween 20, followed by diluting the resulting solution with water so that the concentration of acetone was 10% by volume. When applying the water-diluted solution, the soil was well drained. The pot was flooded with water to a depth of 5 cm on the day of the application of the herbicide, the next day of the application of the herbicide, 3 days after the application of the herbicide, or 7 days after the application of the herbicide. And then, the plant was grown in the glasshouse.
Two (2) weeks after the application of the herbicide, the herbicidal effect on Echinochloa oryzicola was evaluated.

Leptochloa chinenisis = experiment: Pot test Example 5: herbicidal effect on Leptochloa chinenisis, spray at 0.5 cm water then flooding; settings: score 0-100, 100 g/ha, second or third leaf stage, evaluated 2 weeks after application
Protocol: as §1
A 1/10000-are Wagner pot was filled with a paddy field soil, and then water was added thereto followed by soil puddling. After draining, a pre-germinated Leptochloa chinenisis was sown, and then grown in a glasshouse. Sixteen (16) days after the sowing when Leptochloa chinenisis had the second or third leaves, each water-diluted solution containing 50 ppm of Compound 1, Compound 2, or Compound 3 was applied by spraying on the surface of the pot with a sprayer so that each amount of Compound 1, Compound 2, and Compound 3 as listed in Table 4 was applied. When applying the water-diluted solution, the pot was flooded to a depth of 0.5 cm. The pot was flooded with water to a depth of 4 cm or 2 cm on the next day of the application of the herbicide or 5 days after the application of the herbicide. And then, the plant was grown in the glasshouse.
Two (2) weeks after the application of the herbicide, the herbicidal effect on Leptochloa chinenisis was evaluated.

Echinochloa oryzicola [2] = experiment: Pot test Example 2: herbicidal effect on Echinochloa oryzicola, spray on drained soil then flooding; settings: score 0-100, 25 g/ha, 4th leaf stage, evaluated 4 weeks after application
Protocol: as §1
(§2) A 1/10000-are pot was filled with a paddy field soil, and then water was added thereto followed by soil puddling. After draining, a pre-germinated Echinochloa oryzicola was sown, and then grown in a glasshouse. Sixteen (16) days after the sowing when Echinochloa oryzicola had the 4th leaves, a water-diluted solution (112 ppm of Compound 1) a flowable containing 10% Compound 1 was applied by spraying on the surface of the pot with a sprayer so that the amount of Compound 1 as listed in Table 2 was applied. When applying with the water-diluted solution, the soil was well drained. The pot was flooded with water to a depth of 5 cm on the day of the application of the herbicide, the next day of the application of the herbicide, or 3 days after the application of the herbicide. And then, the plant was grown in the glasshouse. Four (4) weeks after the application of the herbicide, the herbicidal effect on Echinochloa oryzicola was evaluated.

Echinochloa oryzicola [3] = experiment: Pot test Example 1: herbicidal effect on Echinochloa oryzicola, spray on drained soil then flooding; settings: score 0-100, 30 g/ha, 4th leaf stage, evaluated 4 weeks after application
Protocol: as §1
as §2, with “1/5000-are Wagner” for “1/10000-are”, “Fourteen (14)” for “Sixteen (16)”, “(134” for “(112”, “1) of” for “1)”, “1” for “2”, “applying” for “applying with”

[4] = flooded to 5 cm 3 days after treatment
[5] = flooded to 5 cm 7 days after treatment
[6] = flooded to 5 cm on day of treatment
[7] = flooded to 5 cm on next day of treatment
[8] = flooded 5 days after treatment, depth 4 cm
[9] = flooded next day of treatment, depth 2 cm
[10] = flooded next day of treatment, depth 4 cm

SMILES	Herbicidal effect on Echinochloa oryzicola (Echinochloa oryzicola [1]; [4])	Herbicidal effect on Echinochloa oryzicola (Echinochloa oryzicola [1]; [5])	Herbicidal effect on Echinochloa oryzicola (Echinochloa oryzicola [1]; [6])	Herbicidal effect on Echinochloa oryzicola (Echinochloa oryzicola [1]; [7])	Herbicidal effect on Leptochloa chinenisis (Leptochloa chinenisis; [8])	Herbicidal effect on Leptochloa chinenisis (Leptochloa chinenisis; [9])	Herbicidal effect on Leptochloa chinenisis (Leptochloa chinenisis; [10])	Herbicidal effect on Echinochloa oryzicola (Echinochloa oryzicola [2]; [4])	Herbicidal effect on Echinochloa oryzicola (Echinochloa oryzicola [2]; [6])	Herbicidal effect on Echinochloa oryzicola (Echinochloa oryzicola [2]; [7])	Herbicidal effect on Echinochloa oryzicola (Echinochloa oryzicola [3]; [4])	Herbicidal effect on Echinochloa oryzicola (Echinochloa oryzicola [3]; [6])	Herbicidal effect on Echinochloa oryzicola (Echinochloa oryzicola [3]; [7])
COCc1cccc(C(O)c2nc(OC)cc(OC)n2)c1NS(=O)(=O)C(F)F (racemic) [Compound 2, (RS)-2′-[(4,6-Dimethoxypyrimidin-2-yl)(hydroxy)methyl]-1,1-difluoro-6′-(methoxymethyl)methanesulfonanilide]	90	80	89	92	80	80	90						
COc1cc(OC)nc(NC(=O)NS(=O)(=O)c2c(C3=NOCC(C)O3)c(Cl)nn2C)n1 (racemic) [Compound 3, 1-{3-Chloro-1-methyl-4-[(5RS)-5,6-dihydro-5-methyl-1,4,2-dioxazin-3-yl]pyrazol-5-ylsulfonyl}-3-(4,6-dimethoxypyrimidin-2-yl)urea]	75	75	83	83	60		90						
CCCc1ccc2nc(Cl)c(S(=O)(=O)NC(=O)Nc3nc(OC)cc(OC)n3)n2n1 [Compound 1, 1-(2-Chloro-6-propylimidazo[1,2-b]pyridazin-3-ylsulfonyl)-3-(4,6-dimethoxypyrimidin-2-yl)urea]					75	75	90	85	88	93	90	96	97

Source: patent US20130331266A1, “METHOD FOR CONTROLLING WEEDS IN PADDY RICE CULTIVATION” (SUMITOMO CHEMICAL COMPANY, LIMITED, priority 2011, published 2013)
